Measured values: publication PMC8073686, “Characterization of Subtype Selective Cannabinoid CB2 Receptor Agonists as Potential Anti-Inflammatory Agents” (Pharmaceuticals, 2021)

Tested on: IL-2 mRNA in Jurkat cells
Test: PHA/PMA-induced IL-2 mRNA in Jurkat cells (RT-PCR)
Assay type: cell-based, human
Description: Activation of CB2 is known to have anti-inflammatory effects. There are some studies reporting that CB2 agonists decrease cytokine production in immune cells. We also reported that the cannabinoid receptor agonist CP55,940 and ABK5 inhibit cytokine production in the human T cell lines Jurkat and MOLT-4 [24]. Since ABK5-1 and 5-2 were confirmed to be CB2-subtype selective agonists, we were interested to determine whether these compounds also have anti-inflammatory effects. Note, although ABK5-6 had marginally better binding affinity to CB2, it bound to CB1 […] (i.e., micromolar range). Therefore ABK5-6 was not selected for further evaluations. We first tested the change of IL-2 and TNF-α mRNA levels in Jurkat cells. […] To test if these mRNA changes are reflected in the protein levels of cytokines, the IL-2 and TNF-α concentration in the cell culture medium were measured by ELISA. […] Unlike ABK5-1, at 3 h of treatment, the lowest concentration of ABK5-2 used caused the IL-2 mRNA decrease. […] On the other hand, TNF-α mRNA decreased by 45% at 10 μM ABK5-2 after 3 h of treatment (Figure 4E, black columns). […] These mRNA level changes were similar to that of ABK5-1, except ABK5-2 caused a stronger inhibitory effect on expression of TNF-α mRNA. […] Consistent with the mRNA levels, the inhibitory effect of ABK5-2 on TNF-α production was stronger than that of ABK5-1.
Figure 4 Effect of ABK5-1 and ABK5-2 on phytohemagglutinin (PHA)/phorbol 12-myristate 13-acetate (PMA)-induced cytokine production in T cells. Jurkat cells were pretreated with DMSO (<0.1%; indicated as 0 μM) or various concentrations of ABK5-1 (A–D) or ABK5-2 (E–H) and stimulated with PHA and PMA. IL-2 and TNF-α mRNA levels were determined by real-time PCR (RT-PCR) after ABK5-1 treatment and (A) 3 h and (B) 24 h of PHA/PMA (phytohemagglutinin/phorbol 12-myristate 13-acetate) stimulation. Protein levels of (C) IL-2 and (D) TNF-α were also examined after 24 h of stimulation. IL-2 and TNF-α mRNA were also examined after ABK5-2 treatment and (E) 3 h and (F) 24 h of stimulation, and protein levels of (G) IL-2 and (H) TNF-α were measured after 24 h stimulation. Results are indicated as the mean ± S.D. of three independent assays performed in triplicate for each concentration. One-way ANOVA and Dunnett’s post-hoc test were used and * p < 0.05, ** p < 0.01, *** p < 0.005, **** p < 0.0001 (versus reference).
For cytokine analysis, 0.75 × 10^6 Jurkat cells per well were seeded in 12-well cell culture plates and treated with compounds at a concentration between 0.1 to 10 μM and incubated for 30 min at 37 °C. Then cells were stimulated for cytokine production with PHA (1 μg/mL) and PMA (12.5 ng/mL), for 3 and 24 h. After stimulation, cells were harvested for RNA analysis and the culture supernatant was used for measurement of IL-2 and TNF-α concentrations by human IL-2 and TNF-α ELISA kits (Thermo Fisher Scientific; Waltham, MA, USA) according to the manufacturer instructions.
Jurkat cells were lysed and total RNA was extracted using TRIzol Reagent (Life Technologies, Carlsbad, CA, USA) followed by reverse transcription by a High-Capacity cDNA Reverse Transcription kit (Life Technologies, Carlsbad, CA, USA) according to the manufacturer’s instructions. Quantitative real-time PCR was performed using an Applied Biosystems 7500 Fast Real-Time PCR system in a 10 μL reaction volume containing 2 μL diluted cDNA and 0.5 μM each of forward and reverse primers, and PowerUp SYBR Green Master Mix (Life Technologies, Carlsbad, CA, USA). Primers used in the reaction were as follows: human 36B4 forward, 5′-[…]-3′, and human 36B4 reverse, 5′-[…]-3′, and human IL-2 forward, 5′-[…]-3′, and human IL-2 reverse, 5′-[…]-3′, and human TNF-α forward, 5′-[…]′, human TNF-α reverse, 5′-[…]-3′. The PCR cycles are as follows: 50 °C for 2 min, 95 °C for 2 min, 40 cycles of 95 °C for 3 sec and 60 °C for 30 s. […]

[1] = 0.1 μM, 3 h PHA/PMA stimulation

SMILES | decrease of IL-2 mRNA [1] | decrease of IL-2 mRNA (1 μM, 3 h PHA/PMA stimulation) | decrease of IL-2 mRNA (1 μM, 24 h) | decrease of IL-2 mRNA (10 μM, 3 h PHA/PMA stimulation) [%] | decrease of IL-2 mRNA (10 μM, 24 h)
CCOC(=O)c1ccccc1NC(=O)CN(c1ccc(C)cc1C)S(=O)(=O)c1ccccc1 [ABK5-1] | did not show a significant decrease | about 17% | about 14% | ~46 | ~67%
CCOC(=O)c1ccccc1NC(=O)CN(c1c(C)cccc1C)S(=O)(=O)c1ccccc1 [ABK5-2] | about 20% | ~15% | – | ~46 | about 65%
